In US20060029555A1, “Compositions and methods for prevention of photoaging” (priority 2002, published 2006):

Tested on: human elastin promoter
Test: Transgenic mouse model of photoaging: human elastin promoter/CAT reporter activity after solar simulating radiation
Assay type: in vivo, transgenic mice
Conditions: topical application to backs about fifteen minutes before 20 MEDs of SSR, three consecutive days; CAT activity 24 hours after third phototreatment, compared with vehicle alone
Method: These mice express human elastin promoter activity in a tissue-specific and developmentally regulated manner. […] In addition, quantitative data can be obtained after only a single exposure to ultraviolet radiation. […] The transgenic mouse is then exposed to solar radiation and human elastin promoter activity in the mouse is determined.
Approximately fifteen minutes after topical application, the mice are exposed to 20 human minimal erythema doses (MEDs) of solar simulating radiation (SSR). […] This procedure is repeated over three consecutive days.
Mice are then sacrificed and skin harvested for determination of CAT activity 24 hours after the third phototreatment. […]
To measure the expression of the human elastin promoter/CAT reporter gene construct in the skin of transgenic mice and in fibroblast cultures established from these animals, CAT activity is determined. […] The homogenates are centrifuged at 10,000 ×g for 15 minutes at 4° C. and the protein concentration in the supernatant determined by a commercial protein assay kit (Bio-Rad Laboratories, Richmond, Calif.). […] The acetylated and non-acetylated forms of radioactive chloramphenicol are separated by thin-layer chromatography and CAT activity is determined by the radioactivity in the acetylated forms as a percent of the total radioactivity in each sample.

Cn1c(=O)c2c(ncn2C)n(C)c1=O [caffeine]
protection against photoaging and other sun-damage (human elastin promoter activity, CAT activity in skin): provides protection against photoaging and other sun-damage such as sunburn
